TGI data for 15 molecules are collected here from PubChem BioAssay (NCI).

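Values below derive from 48-hour exposures of cells grown in 96-well plates, with endpoints linearly interpolated between the two concentrations bracketing the appropriate inhibition level. Definition used: TGI = concentration required for complete inhibition of growth.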

Holding throughout (assay): DTP human tumour cell line panel, 48 h
The subject of assay [1] is K-562 leukemia.
Assay [2] relates to LOX IMVI melanoma.
The subject of assay [3] is MOLT-4 leukemia.
The subject of assay [4] is NCI-H522 lung.
For assay [5], the system named is OVCAR-3 ovarian.
Assay [6] deals with RXF 393 renal.
For assay [7], the system named is SK-MEL-28 melanoma.
The test system of assay [8] is SK-OV-3 ovarian.
Assay [9] concerns UACC-257 melanoma.
The test system of assay [10] is MDA-MB-435.
The test system of assay [11] is T-47D breast.

Turning to `CC(=O)OC1CC2C(C)(C)OC(=O)CC(OC(C)=O)[C@]2(C)C2CCC3(C)C(=CCC3[C@H]3COC(=O)C3)[C@]12C` (stereo partly drawn), the TGI was over 100 µM in [1]; over 100 µM in assay [2]; 89.5 µM in assay [3]; over 100 µM in [4]; over 100 µM in [5]; over 100 µM in assay [6]. For the same molecule, the TGI in assay [7] and in assay [8] was over 100 µM throughout.
Consider `O=C(CSc1nnc(Cc2ccccc2)o1)Nc1ccc([N+](=O)[O-])cc1`, for which the TGI in assay [1], in assay [2], in [3], in [4], in [5] and in assay [6] was over 100 µM throughout. Also, the TGI in assay [7], in [8] and in [9] was over 100 µM in each case.
For the molecule `O=C(Cc1ccccc1)NN1C(=O)/C(=C\c2cccc(O)c2)SC1=Nc1ccccc1`, the TGI in [10], in assay [5], in [6], in assay [7], in assay [8] and in [11] was over 100 µM throughout. Moreover, the TGI in [9] is over 100 µM.
For `O=C(NC(Cc1ccc(I)cc1)C(=O)O)c1ccc(Br)cc1` (stereo not drawn), the TGI in assay [1], in assay [2], in [3], in assay [4], in assay [5] and in assay [6] was over 100 µM each time. Further, the TGI in [7], in assay [8] and in assay [9] was over 100 µM throughout.
As for `CC1CCOc2ccc(cc2)C=Nc2ccc(cc2)CCc2ccc(cc2)N=Cc2ccc(cc2)OCC1` (stereo not drawn), the TGI in [1], in [2], in assay [10], in [3], in assay [4] and in [5] was over 100 µM in each case. In addition, the TGI in assay [6], in assay [7] and in [9] was over 100 µM in each case.
As to `O=C1OC2(OC2c2ccccc2)c2ccccc21` (stereo not drawn), the TGI in assay [1], in assay [2], in assay [3], in assay [4], in [5] and in assay [6] was over 100 µM throughout. For the same molecule, the TGI in [7], in [8] and in assay [9] was over 100 µM throughout.
Turning to `CCCCCCCCCCCCCCCCCC(=O)O[C@H](COC(=O)CCCCCCCCCCC)COC(=O)CCCCCCCCCCCCCCC`, the TGI in assay [1], in assay [2], in assay [3], in assay [5], in assay [7] and in assay [8] was over 100 µM in each case. The TGI in assay [9] was over 100 µM.
On to `Cc1cc(C)cc(Nc2cc(=O)[nH]c(=O)[nH]2)c1`, for which the TGI in [1], in assay [2], in assay [10], in assay [3], in assay [5] and in [6] was over 100 µM in each case. Also, the TGI in assay [7], in assay [11] and in [9] was over 100 µM in each case.
On to `Nn1c(CCCCCCCCc2nnc(COc3ccc(Cl)cc3)n2N)nnc1COc1ccc(Cl)cc1`, for which the TGI in [1], in assay [10], in assay [3], in [4], in [6] and in assay [7] was over 100 µM throughout. The TGI in [8] and in assay [9] was over 100 µM throughout.
With `O=C(OCC1OC2OC(c3ccccc3)(n3ccc4c([N+](=O)[O-])ccnc43)OC2C1OC(=O)c1ccccc1)c1ccccc1` (stereo not drawn), the TGI in assay [1], in assay [2], in assay [10], in assay [3], in assay [5] and in assay [7] was over 100 µM throughout. Besides, the total growth inhibition concentration (TGI) in assay [8], in assay [11] and in assay [9] was over 100 µM each time.
With `Cc1[nH]c(=O)[nH]c(=O)c1/C=C/C(=O)O`, the TGI in assay [1], in assay [2], in assay [3], in assay [4], in [5] and in [6] was over 1000 µM each time. Further, the TGI in assay [7], in [8] and in assay [9] was over 1000 µM throughout.
For `CC1=COC(C)(C=C(C#N)C#N)CC1` (stereo not drawn), the total growth inhibition concentration (TGI) in assay [1], in assay [10], in assay [3], in [6], in assay [7] and in [8] was over 100 µM each time. Also, the concentration for total growth inhibition (TGI) in assay [11] and in assay [9] was over 100 µM each time.
With `CCCC(C)NC1=C(NC(C)=O)C(=O)c2ccccc2C1=O` (stereo not drawn), the TGI in assay [1], in assay [2], in [3], in assay [4], in assay [5] and in [6] was over 100 µM throughout. Also, the TGI in assay [7], in assay [8] and in assay [9] was over 100 µM each time.
For `COC(=O)C1=C2SCc3cccc(c3)CSC3=C(C(=O)OC)SC(=C(S2)S1)S3`, the TGI in [1], in assay [10], in [3], in assay [5], in [6] and in assay [7] was over 100 µM throughout. For the same molecule, the TGI in assay [8], in [11] and in [9] was over 100 µM each time.
Turning to `O=C(Cc1ccccc1)NN1C(=O)C(Cl)C1c1ccc(O)cc1` (stereo not drawn), the TGI in assay [1], in [2], in assay [3], in [4], in [5] and in [6] was over 100 µM in each case. The TGI in assay [7], in assay [8] and in assay [9] was over 100 µM each time.
